# From patent publication US11479551B2, “MTA-cooperative PRMT5 inhibitors” (Mirati Therapeutics, Inc., priority 2019, dated 2022)
# Read-outs that look alike come from different tables or passages of the source.
# Key:
# [1] = system: HCT116 homozygous MTAP knockout cells; assay: Proliferation assay (CellTiter-Glo, 10 days of treatment), HCT116 MTAP knockout; type: cell-based; conditions: read-out: Proliferation HCT116MTAP_KO IC50
# Experimental: (§1) 1. HCT116 MTAP Knockout Model
# (§2) HCT116 cells were genetically engineered to knock out the function of both MTAP alleles using a CRISPR/Cas9 system and an sgRNA targeting the MTAP gene. Following Cas9/MTAP sgRNA transduction, clones were screened to confirm that each allele of the MTAP gene had been inactivated (i.e., homozygous MTAP knock out) creating an MTAP-deficient cell.
# (§3) Control samples were analyzed in parallel.
# Briefly, on Day 0, 250 HCT116 parental or HCT116 homozygous MTAP knockout cell were seeded in 96 well plates in McCoy's 5A supplemented with 10% fetal bovine serum and pen/strep and the cells were incubated overnight at 37° C. plus 5% CO2.
# The following day, cells were treated with DMSO vehicle control or a dose response of PRMT5 inhibitors and incubated at 37 C plus 5% CO2 for five days. On Day 6, the cells were trypsinized and split 1:10 into new 96-well plates with fresh medium containing the same concentration of PRMT5 inhibitor and incubated for an additional 5 days at 37° C. plus 5% CO^2.
# On Day 11, the viability of the cells was measured using a CTG assay kit (CellTiter-Glo; Promega cat.no G7573) in accordance with the manufacturer's instructions. The IC50 values for each compound after 10 days of treatment were calculated using GraphPad PRISM software.
# [2] = system: PRMT5-dependent Symmetric Di-methyl Arginine signal in HCT116 homozygous MTAP knockout cells; assay: SYM11 In-Cell Western, HCT116 MTAP knockout; type: cell-based; conditions: HCT116 homozygous MTAP knockout cells, 4 days of treatment, SYM11/DRAQ5 ratio, read-out: In-cell-Western (SYM11) HCT116 MTAP_KO IC50
# Experimental: as §1, §2, §3
# Briefly, on Day 0, 2,000 HCT116 parental or HCT116 homozygous MTAP knockout cells were seeded in 96 well plates in McCoy's 5A supplemented with 10% fetal bovine serum and pen/strep and the cells were incubated overnight at 37° C. plus 5% CO2. The following day, cells were treated with DMSO vehicle control or a dose response of PRMT5 inhibitors, and incubated at 37° C. plus 5% CO^2 for four days.
# After 4 days of treatment, the cells were fixed by adding 50 μl of 4% paraformaldehyde solution to each well and the cells were incubated for 20 min at room temperature. The paraformaldehyde solution was removed, 150 μl of ice-cold methanol was added and the plate was placed −20° C. for 10 minutes. The methanol was removed, 150 μl of Odyssey Blocking buffer+0.05% Tween20 was added and the plate was incubated at room temperature with shaking for one hour.
# The primary SYM11 antibody solution was removed by aspiration and the wells were washed three consecutive times with phosphate buffered saline containing 0.1% Tween-20 (PBST).
# The secondary antibody solution was removed by aspiration and the wells were washed three consecutive times with PB ST.
# The SYM11 signal and the DRAQ5 signal were quantified using a Li-Cor Odyssey machine reading at […], respectively. The SYM11/DRAQ5 ratio was used to calculate the inhibition of Symmetric Dimethyl Arginine as percent of DMSO control.
Compound,"IC50 ([1]; Homo sapiens, HCT-116, 240 h) [µM]","IC50 ([2]; Homo sapiens, HCT-116, 96 h) [µM]",IC50 [1] [µM],IC50 [2] [µM]
"Cn1ncc(-c2ccc3c(=O)[nH]nc(CN)c3c2)c1-c1cn2ccccc2c1C#N [Example 4-240, 2-(4-(4-(aminomethyl)-1-oxo-1,2-dihydrophthalazin-6-yl)-1-methyl-1H-pyrazol-5-yl)indolizine-1-cathonitrile]",3.56,> 1,,
"Cn1ncc(-c2ccc3c(=O)[nH]nc(CN)c3c2)c1-c1sc2ncccc2c1C#N [Example 4-244, 2-(4-(4-(aminomethyl)-1-oxo-1,2-dihydrophthalazin-6-yl)-1-methyl-1H-pyrazol-5-yl)thieno[2,3-b]pyridine-3-carbonitrile]",0.327,0.042,,
"Cn1ncc(-c2ccc3c(=O)[nH]nc(CN)c3c2)c1-c1c(C(F)F)cc2ccccc2c1C#N [Example 4-246, 2-(4-(4-(aminomethyl)-1-oxo-1,2-dihydrophthalazin-6-yl)-1-methyl-1H-pyrazol-5-yl)-3-(difluoromethyl)-1-naphthonitrile]",0.072,0.05,,
"Cn1cc2c(C#N)c(-c3c(-c4ccc5c(=O)[nH]nc(CN)c5c4)cnn3C)ccc2n1 [Example 4-248, 5-(4-(4-(aminomethyl)-1-oxo-1,2-dihydrophthalazin-6-yl)-1-methyl-1H-pyrazol-5-yl)-2-methyl-2H-indazole-4-carbonitrile]",1.16,> 1,,
"Cn1ncc(-c2ccc3c(=O)[nH]nc(CN)c3c2)c1-c1ccc2c(cnn2C)c1C#N [Example 4-249, 5-(4-(4-(aminomethyl)-1-oxo-1,2-dihydrophthalazin-6-yl)-1-methyl-1H-pyrazol-5-yl)-1-methyl-1H-indazole-4-carbonitrile]",3.51,> 1,,
"Cn1ncc(-c2ccc3c(=O)[nH]nc(CN)c3c2)c1-c1ccc2nscc2c1C#N [Example 4-250, 5-(4-(4-(aminomethyl)-1-oxo-1,2-dihydrophthalazin-6-yl)-1-methyl-1H-pyrazol-5-yl)benzo[c]isothiazole-4-carbonitrile]",0.757,0.051,,
"Cn1ncc(-c2ccc3c(=O)[nH]nc(CN)c3c2)c1-c1c(F)ccc(OC2CC2)c1C#N [Example 4-251, 2-(4-(4-(aminomethyl)-1-oxo-1,2-dihydrophthalazin-6-yl)-1-methyl-1H-pyrazol-5-yl)-6-cyclopropoxy-3-fluorobenzonitrile]",0.049,0.008,,
"Cn1ncc(-c2ccc3c(=O)[nH]nc(CN)c3c2)c1-c1cc(OC(F)(F)F)cc(OC2CC2)c1C#N [Example 4-252, 2-(4-(4-(aminomethyl)-1-oxo-1,2-dihydrophthalazin-6-yl)-1-methyl-1H-pyrazol-5-yl)-6-cyclopropoxy-4-(trifluoromethoxy)benzonitrile]",0.087,0.004,,
"Cn1ncc(-c2ccc3c(=O)[nH]nc([C@H](N)C(F)F)c3c2)c1-c1ccc2ccccc2c1C#N [Example 9-6, 2-[4-[4-[(1S)-1-amino-2,2-difluoro-ethyl]-1-oxo-2H-phthalazin-6-yl]-2-methyl-pyrazol-3-yl]naphthalene-1-carbonitrile]",> 10,> 1,,
"Cn1ncc(-c2cc(C(F)(F)F)c3c(=O)[nH]nc(CN)c3c2)c1-c1ccc2ccccc2c1C#N [Example 10-13, 2-(4-(4-(aminomethyl)-1-oxo-8-(trifluoromethyl)-1,2-dihydrophthalazin-6-yl)-1-methyl-1H-pyrazol-5-yl)-1-naphthonitrile]",0.085,0.016,,
"Cn1ncc(-c2cc(Cl)c3c(=O)[nH]nc(CN)c3c2)c1-c1cccc(OC2CC2)c1C#N [Example 10-14, 2-(4-(4-(aminomethyl)-8-chloro-1-oxo-1,2-dihydrophthalazin-6-yl)-1-methyl-1H-pyrazol-5-yl)-6-cyclopropoxybenzonitrile]",0.088,0.075,,
"Cc1cc(OC2CC2)c(C#N)c(-c2c(-c3cc(Cl)c4c(=O)[nH]nc(CN)c4c3)cnn2C)c1F [Example 10-20, 2-(4-(4-(aminomethyl)-8-chloro-1-oxo-1,2-dihydrophthalazin-6-yl)-1-methyl-1H-pyrazol-5-yl)-6-cyclopropoxy-3-fluoro-4-methylbenzonitrile]",0.035,0.029,,
"Cc1c(-c2c(-c3ccc4c(=O)[nH]nc(CN)c4c3)cnn2C)ccc2ccccc12 [Example 12-12, 4-(aminomethyl)-6-[1-methyl-5-(1-methyl-2-naphthyl)pyrazol-4-yl]-2H-phthalazin-1-one]",0.24,0.026,,
"COc1cc2ccccc2c(C#N)c1-c1c(-c2ccc3c(=O)[nH]nc(CN)c3c2)cnn1C [Example 12-16, 2-[4-[4-(aminomethyl)-1-oxo-2H-phthalazin-6-yl]-2-methyl-pyrazol-3-yl]-3-methoxy-naphthalene-1-carbonitrile]",0.075,0.0005,0.073,0.0004

# Other lines, results leading:
"IC50 ([1]; Homo sapiens, HCT-116, 240 h) [µM]","IC50 ([2]; Homo sapiens, HCT-116, 96 h) [µM]",IC50 [1] [µM],IC50 [2] [µM],Compound
0.285,0.051,,,"Cn1ncc(-c2ccc3c(=O)[nH]nc(CN)c3c2)c1-c1cc(Cl)cc(OC(F)F)c1C#N [Example 4-243, 2-(4-(4-(aminomethyl)-1-oxo-1,2-dihydrophthalazin-6-yl)-1-methyl-1H-pyrazol-5-yl)-4-chloro-6-(difluoromethoxy)benzonitrile]"
0.008,0.007,,,"Cc1c(F)c(-c2c(-c3ccc4c(=O)[nH]nc(CN)c4c3)cnn2C)c(C#N)c2ccccc12 [Example 4-245, 2-(4-(4-(aminomethyl)-1-oxo-1,2-dihydrophthalazin-6-yl)-1-methyl-1H-pyrazol-5-yl)-3-fluoro-4-methyl-1-naphthonitrile]"
1.81,> 1,,,"Cn1nc(F)c(-c2ccc3c(=O)[nH]nc(CN)c3c2)c1-c1ccc2ccccc2c1C#N [Example 4-247, 2-(4-(4-(aminomethyl)-1-oxo-1,2-dihydrophthalazin-6-yl)-3-fluoro-1-methyl-1H-pyrazol-5-yl)-1-naphthonitrile]"
0.013,0.004,,,"Cc1cc(-c2cnn(C)c2-c2c(F)cc3ccccc3c2C#N)cc2c(CN)n[nH]c(=O)c12 [Example 10-15, 2-(4-(4-(aminomethyl)-8-methyl-1-oxo-1,2-dihydrophthalazin-6-yl)-1-methyl-1H-pyrazol-5-yl)-3-fluoro-1-naphthonitrile]"
0.021,0.021,,,"Cn1ncc(-c2cc(Cl)c3c(=O)[nH]nc(CN)c3c2)c1-c1c(F)cc2ccccc2c1C#N [Example 10-17, 2-(4-(4-(aminomethyl)-8-chloro-1-oxo-1,2-dihydrophthalazin-6-yl)-1-methyl-1H-pyrazol-5-yl)-3-fluoro-1-naphthonitrile]"
0.312,0.185,,,"Cc1cc(OC2CC2)c(C#N)c(-c2c(-c3cc(Cl)c4c(=O)[nH]nc(CN)c4c3)cnn2C)c1 [Example 10-19, 2-(4-(4-(aminomethyl)-8-chloro-1-oxo-1,2-dihydrophthalazin-6-yl)-1-methyl-1H-pyrazol-5-yl)-6-cyclopropoxy-4-methylbenzonitrile]"
0.261,0.189,,,"Cc1cc2ccccc2c(C#N)c1-c1c(-c2ccc3c(=O)[nH]nc(CN)c3c2)cnn1C [Example 12-15, 2-[4-[4-(aminomethyl)-1-oxo-2H-phthalazin-6-yl]-2-methyl-pyrazol-3-yl]-3-methyl-naphthalene-1-carbonitrile]"
0.085,0.01,,,"Cc1cnc2ccc(-c3c(-c4ccc5c(=O)[nH]nc(CN)c5c4)cnn3C)c(C#N)c2c1 [Example 12-17, 6-[4-[4-(aminomethyl)-1-oxo-2H-phthalazin-6-yl]-2-methyl-pyrazol-3-yl]-3-methyl-quinoline-5-carbonitrile]"
0.104,0.01,,,"Cc1cc(OC2CC2)c(C#N)c(-c2c(-c3ccc4c(=O)[nH]nc(CN)c4c3)cnn2C)c1 [Example 12-18, 2-(4-(4-(aminomethyl)-1-oxo-1,2-dihydrophthalazin-6-yl)-1-methyl-1H-pyrazol-5-yl)-6-cyclopropoxy-4-methylbenzonitrile]"
